Literature values in patent US20060148027A1, “Sprouty and SPRED protein biosensors” (Board of Regents, the University of Texas System, priority 2005, published 2006).

Settings: known potential of the reference redox dye

- redox potential: −289 mV
Structure (SMILES): Cc1cc2nc3cc(C)c(N)cc3[n+](-c3ccccc3)c2cc1N.[Cl-] [Safranine O]
